Laboratory results: ChEMBL document CHEMBL1268953, “Discovery of novel 2-aryl-4-benzoyl-imidazoles targeting the colchicines binding site in tubulin as potential anticancer agents” (J Med Chem, 2010)
Converted amounts (≈) assume the structure as drawn.

Columns and labels:
[1] = Cytotoxicity against mouse B16-F1 cells after 48 hrs by sulforhodamine B assay; assay type: functional, cell-based; conditions: Mus musculus, B16-F1, 48 h
[2] = Cytotoxicity against human WM164 cells after 48 hrs by sulforhodamine B assay; assay type: functional, cell-based; conditions: Homo sapiens, WM164, 48 h
LNCaP = assay: Cytotoxicity against human LNCAP cells after 48 hrs by sulforhodamine B assay; assay type: functional, cell-based
MDA-MB-435 = assay: cells; conditions: Homo sapiens, MDA-MB-435, 48 h
A-375 = assay: Cytotoxicity against human A375 cells after 48 hrs by sulforhodamine B assay; assay type: functional, cell-based; conditions: Homo sapiens, A-375, 48 h
[3] = Cytotoxicity against human multidrug-resistant MDA-MB-435/LCCMDR1 cells after 48 hrs by sulforhodamine B assay; assay type: functional, cell-based; conditions: MDA-MB-435, 48 h
PPC-1 = assay: Cytotoxicity against human PPC1 cells after 48 hrs by sulforhodamine B assay; assay type: functional, cell-based; conditions: Homo sapiens, PPC-1, 48 h
PC-3 = assay: cells; conditions: Homo sapiens, PC-3, 48 h
DU-145 = assay: cells; conditions: Homo sapiens, DU-145, 48 h
Mus musculus [4] = assay: Toxicity in mouse B16-F1 cells xenografted C57/BL mouse assessed as reduction of body weight at 10 mg/kg, ip administered 7 days after tumor inoculation qd for 14 days; assay type: organism-based; design: dose 10 mg/kg, route intraperitoneal; conditions: in vivo
Mus musculus [5] = assay: Toxicity in mouse B16-F1 cells xenografted C57/BL mouse assessed as reduction of body weight at 30 mg/kg, ip administered 7 days after tumor inoculation qd for 14 days; assay type: organism-based; design: dose 30 mg/kg, route intraperitoneal; conditions: in vivo
[6] = Aqueous solubility of the compound in water after 24 hrs by shake-flask method; assay type: physicochemical
[7] = Aqueous solubility of the compound in buffer at pH 7 after 24 hrs by shake-flask method; assay type: physicochemical
Mus musculus [8] = assay: Toxicity in mouse B16-F1 cells xenografted C57/BL mouse assessed as reduction of body weight at 60 mg/kg, ip administered 7 days after tumor inoculation qd for 14 days; assay type: organism-based; design: dose 60 mg/kg, route intraperitoneal; conditions: in vivo
[9] = Antitumor activity against mouse B16-F1 cells xenografted in C57/BL mouse assessed as reduction of tumor growth at 60 mg/kg, ip administered 7 days after tumor inoculation qd for 14 days; assay type: functional; design: scale not given: the % may be the effect or the level left; conditions: route intraperitoneal

| Structure (SMILES) | IC50 (PC-3) [nM] | IC50 (DU-145) [nM] | IC50 [1] [nM] | IC50 [2] [nM] | IC50 (LNCaP) [nM] | IC50 (MDA-MB-435) [nM] | IC50 (A-375) [nM] | IC50 [3] [nM] | IC50 (PPC-1) [nM] | Activity (Mus musculus [4]) | Activity (Mus musculus [5]) | solubility thermodynamic at 24 h [6] [µg/mL] | solubility thermodynamic at 24 h [7] [µg/mL] | Activity (Mus musculus [8]) | Activity [9] [%] |
| --- | --- | --- | --- | --- | --- | --- | --- | --- | --- | --- | --- | --- | --- | --- | --- |
| COc1ccc(-c2nc(C(=O)c3ccc(F)cc3)c[nH]2)cc1 |  |  |  |  |  | 30 |  |  |  | Non-toxic | Non-toxic |  |  |  |  |
| COc1cc(C(=O)c2csc(-c3ccc(N(C)C)cc3)n2)cc(OC)c1OC |  |  |  |  |  |  |  |  |  |  |  | 0.833 (≈ 2.09 µM) | 0.909 (≈ 2.28 µM) |  |  |
| COc1cc(C(=O)c2c[nH]c(-c3ccc(N(C)C)cc3)n2)cc(OC)c1OC | 92 | 95 | 361 | 80 | 58 |  | 82 |  | 67 |  |  | 11.3 (≈ 29.6 µM) | 48.9 (≈ 128 µM) |  |  |
| COc1ccc(/C=C\c2cc(OC)c(OC)c(OC)c2)cc1O [COMBRETASTATIN A4] |  |  |  |  |  |  |  |  |  |  |  | 2.83 (≈ 8.95 µM) | 1.04 (≈ 3.29 µM) |  |  |
| CN(C)/N=N/c1[nH]cnc1C(N)=O [DACARBAZINE] |  |  |  |  |  |  |  |  |  |  |  |  |  | Non-toxic | 51 |
| CC(=O)O[C@H]1C(=O)[C@@]2(C)[C@H]([C@H](OC(=O)c3ccccc3)[C@]3(O)C[C@H](OC(=O)[C@H](O)[C@@H](NC(=O)c4ccccc4)c4ccccc4)C(C)=C1C3(C)C)[C@]1(OC(C)=O)CO[C@@H]1C[C@@H]2O [PACLITAXEL] |  |  |  |  |  |  |  |  |  |  |  | 0.021 (≈ 0.0246 µM) | 0.137 (≈ 0.16 µM) |  |  |

Now from value to molecule, other results behind:

| IC50 (PC-3) [nM] | IC50 (DU-145) [nM] | Structure (SMILES) | IC50 [1] [nM] | IC50 [2] [nM] | IC50 (LNCaP) [nM] | IC50 (MDA-MB-435) [nM] | IC50 (A-375) [nM] | IC50 [3] [nM] | IC50 (PPC-1) [nM] | Activity (Mus musculus [4]) | Activity (Mus musculus [5]) | solubility thermodynamic at 24 h [6] [µg/mL] | solubility thermodynamic at 24 h [7] [µg/mL] | Activity (Mus musculus [8]) | Activity [9] [%] |
| --- | --- | --- | --- | --- | --- | --- | --- | --- | --- | --- | --- | --- | --- | --- | --- |
| 33 | 52 | COc1ccc(-c2ncc(C(=O)c3ccc(F)cc3)n2S(=O)(=O)c2ccccc2)cc1 | 71 | 43 | 31 | 30 | 36 | 38 | 32 |  |  |  |  |  |  |
| 76 | 64 | O=C(c1ccc(F)cc1)c1cnc(-c2ccc(Cl)cc2)n1S(=O)(=O)c1ccccc1 | 107 | 70 | 48 |  | 88 |  | 54 |  |  |  |  |  |  |
| 83 | 74 | CN(C)c1ccc(-c2ncc(C(=O)c3ccc(F)cc3)n2S(=O)(=O)c2ccccc2)cc1 | 242 | 56 | 56 |  | 55 |  | 48 |  |  |  |  |  |  |
| 10000 | 3310 | COc1ccc(-c2ncc(C(=O)c3ccc(F)cc3)n2S(=O)(=O)c2ccccc2)cc1OC | 2000 | 1400 | 1920 |  | 960 |  | 1440 |  |  |  |  |  |  |
| > 10000 | > 10000 | COc1cc(C(=O)c2cnc(-c3ccccc3C(F)(F)F)n2S(=O)(=O)c2ccccc2)cc(OC)c1OC | > 10000 | > 10000 | > 10000 |  | > 10000 |  | > 10000 |  |  |  |  |  |  |
| > 10000 | > 10000 | O=C(c1ccc(F)cc1)c1cnc(-c2ccccc2C(F)(F)F)n1S(=O)(=O)c1ccccc1 | > 10000 | > 10000 | > 10000 |  | > 10000 |  | > 10000 |  |  |  |  |  |  |
| 75 | 58 | O=C(c1ccc(F)cc1)c1cnc(-c2ccc(OCc3ccccc3)cc2)n1S(=O)(=O)c1ccccc1 | 110 | 48 | 35 |  | 64 |  | 38 |  |  |  |  |  |  |
